Measurements as given in patent US12662469B2 (SIRONAX LTD, priority 2018, dated 2026).

Tested on: Cell Necrosis
Experiment: Cell necrosis assay / cell viability assay (necrosis inhibitor activity)
Format: cell-based
Details: necrosis inhibitor activity; compounds outside 14-191; read-out: EC50

How did the EC50 turn out when `O=C(N1CC(=Cc2ccc3oc(=O)[nH]c3c2)C1)N1N=CC[C@H]1c1cc(F)cc(F)c1` [Compound 311, (S)-5-((1(5-(3,5-difluorophenyl)-4,5-dihydro-1H-pyrazole-1-carbonyl)azetidin-3-ylidene)methyl)benzo[d]oxazol-2(3H)-one] was run?
Its EC50 is 1 to 1000 nM.

Which EC50 does the source give for `O=C(N1CC(=Cc2ccc(F)cc2Cl)C1)N1N=CC[C@H]1c1cc(F)cc(F)c1` [Compound 312, (S)-(3-(2-chloro-4-fluorobenzylidene)azetidin-1-yl)(5-(3,5-difluorophenyl)-4,5-dihydro-1H-pyrazol-1-yl)methanone] here?
The EC50 was 1 to 1000 nM.

How did the EC50 turn out when `O=C(N1CC(=Cc2ccc(Cl)cc2F)C1)N1N=CC[C@H]1c1cc(F)cc(F)c1` [Compound 313] was run?
Its EC50 is 1 to 1000 nM.

`O=C(N1CC(=Cc2ccc(Cl)cc2Cl)C1)N1N=CC[C@H]1c1cc(F)cc(F)c1` [Compound 314, (S)-(3-(2,4-dichlorobenzylidene)azetidin-1-yl)(5-(3,5-difluorophenyl)-4,5-dihydro-1H-pyrazol-1-yl)methanone] was tested. Which EC50 did it give?
The EC50 was 1 to 1000 nM.

For `O=C(N1CC(=Cc2cnc3cn[nH]c3c2)C1)N1N=CC[C@H]1c1cc(F)cc(F)c1` [Compound 315, (S)-(3-((1H-pyrazolo[4,3-b]pyridin-6-yl)methylene)azetidin-1-yl)(5-(3,5-difluorophenyl)-4,5-dihydro-1H-pyrazol-1-yl)methanone], which EC50 is on record?
The EC50 was 1 to 1000 nM.

Which EC50 does the source give for `O=C(N1CC(=Cc2ccc(Cl)nc2Cl)C1)N1N=CC[C@H]1c1cc(F)cc(F)c1` [Compound 316, (S)-(3-((2,6-dichloropyridin-3-yl)methylene)azetidin-1-yl)(5-(3,5-difluorophenyl)-4,5-dihydro-1H-pyrazol-1-yl)methanone] here?
The EC50 was 1 to 1000 nM.

How did the EC50 turn out when `CNc1cccc(C=C2CN(C(=O)N3N=CC[C@H]3c3cc(F)cc(F)c3)C2)c1` [Compound 317, (S)-(5-(3,5-difluorophenyl)-4,5-dihydro-1H-pyrazol-1-yl)(3-(3-(methylamino)benzylidene)azetidin-1-yl)methanone] was run?
Its EC50 is 1 to 1000 nM.

`O=C(N1CC(=Cc2ccc3oncc3c2)C1)N1N=CC[C@H]1c1cc(F)cc(F)c1` [Compound 318, (S)-(3-(benzo[d]isoxazol-5-ylmethylene)azetidin-1-yl)(5-(3,5-difluorophenyl)-4,5-dihydro-1H-pyrazol-1-yl)methanone] was tested. Which EC50 did it give?
The EC50 was 1 to 1000 nM.

With `N#Cc1ccc(F)c(C=C2CN(C(=O)N3N=CC[C@H]3c3cc(F)cc(F)c3)C2)c1` [Compound 319, (S)-3-((1-(5-(3,5-difluorophenyl)-4,5-dihydro-1H-pyrazole-1-carbonyl)azetidin-3-ylidene)methyl)-4-fluorobenzonitrile] as the compound, how does the EC50 read?
Its EC50 is 1 to 1000 nM.

How did the EC50 turn out when `NC(=O)c1ccc(F)cc1C=C1CN(C(=O)N2N=CC[C@H]2c2cc(F)cc(F)c2)C1` [Compound 320, (S)-2-((1-(5-(3,5-difluorophenyl)-4,5-dihydro-1H-pyrazole-1-carbonyl)azetidin-3-ylidene)methyl)-4-fluorobenzamide] was run?
Its EC50 is 1 to 1000 nM.

For `N#Cc1cc(F)ccc1C=C1CN(C(=O)N2N=CC[C@H]2c2cc(F)cc(F)c2)C1` [Compound 321, (S)-2-((1-(5-(3,5-difluorophenyl)-4,5-dihydro-1H-pyrazole-1-carbonyl)azetidin-3-ylidene)methyl)-5-fluorobenzonitrile], which EC50 is on record?
The EC50 was 1 to 1000 nM.

For `O=C(N1CC(=Cc2cc3[nH]nc(F)c3cc2F)C1)N1N=CC[C@H]1c1cncc(F)c1` [Compound 322, (S)-(3-((3,5-difluoro-1H-indazol-6-yl)methylene)azetidin-1-yl)(5-(5-fluoropyridin-3-yl)-4,5-dihydro-1H-pyrazol-1-yl)methanone], which EC50 is on record?
Its EC50 is 1 to 1000 nM.

`N#Cc1ccc(C=C2CN(C(=O)N3N=CC[C@H]3c3cc(F)cc(F)c3)C2)c(F)n1` [Compound 323, (S)-5-((1-(5-(3,5-difluorophenyl)-4,5-dihydro-1H-pyrazole-1-carbonyl)azetidin-3-ylidene)methyl)-6-fluoropicolinonitrile] was tested. Which EC50 did it give?
Its EC50 is 1 to 1000 nM.
